Reference: patent publication US11970463B2, “Compounds and their use” (ASTRAZENECA AB, priority 2021, dated 2024)
Converted amounts (≈) assume the structure as drawn. Like-named read-outs stand apart in the source and are kept apart here.

How the values were obtained:
[1] = biological target: T1, Human NLRP3 (Homo sapiens (Human), UniProt Q96P20); assay: Human NLRP3 speck formation assay (Test A), nigericin triggered ASC-speck formation in ASC-GFP reporter monocytes
[2] = tested on: IL-1β production; assay: LPS/ATP test in mice, peritoneal IL-1β by ELISA; assay type: in vivo, BALB/cAJcl mice; conditions: Mus musculus, LPS/ATP i.p.; for inhibition at 3 mg/kg: 3 mg/kg orally; for inhibition at 1 mg/kg: 1 mg/kg orally
[3] = Solubility (Test F), McIlvaine buffer pH 6.5; assay type: physicochemical; conditions: 25 °C, pH 6.5, aqueous buffer, thermodynamic from solid, McIlvaine buffer pH 6.5, 25° C., 24 to 72 h, theoretical maximum 200 μM
[4] = biological target: T1, Human NLRP3; conditions: Test C IC50, IL-1β release, THP-1 cells, LPS 2 μg/mL 24 h, BzATP 1 mM
[5] = Solubility (Test E); assay type: physicochemical
[6] = biological target: T1, Human NLRP3
[7] = biological target: hERG (Homo sapiens (Human), UniProt Q12809); assay: hERG assay (Test D), SyncroPatch 384PE patch clamp, hERG-expressing CHO cells; assay type: cell-based; conditions: rt
[8] = disodium hydrogenphosphate-citric acid (McIlvaine) buffer

hERG, sequence (Q12809 whole entry): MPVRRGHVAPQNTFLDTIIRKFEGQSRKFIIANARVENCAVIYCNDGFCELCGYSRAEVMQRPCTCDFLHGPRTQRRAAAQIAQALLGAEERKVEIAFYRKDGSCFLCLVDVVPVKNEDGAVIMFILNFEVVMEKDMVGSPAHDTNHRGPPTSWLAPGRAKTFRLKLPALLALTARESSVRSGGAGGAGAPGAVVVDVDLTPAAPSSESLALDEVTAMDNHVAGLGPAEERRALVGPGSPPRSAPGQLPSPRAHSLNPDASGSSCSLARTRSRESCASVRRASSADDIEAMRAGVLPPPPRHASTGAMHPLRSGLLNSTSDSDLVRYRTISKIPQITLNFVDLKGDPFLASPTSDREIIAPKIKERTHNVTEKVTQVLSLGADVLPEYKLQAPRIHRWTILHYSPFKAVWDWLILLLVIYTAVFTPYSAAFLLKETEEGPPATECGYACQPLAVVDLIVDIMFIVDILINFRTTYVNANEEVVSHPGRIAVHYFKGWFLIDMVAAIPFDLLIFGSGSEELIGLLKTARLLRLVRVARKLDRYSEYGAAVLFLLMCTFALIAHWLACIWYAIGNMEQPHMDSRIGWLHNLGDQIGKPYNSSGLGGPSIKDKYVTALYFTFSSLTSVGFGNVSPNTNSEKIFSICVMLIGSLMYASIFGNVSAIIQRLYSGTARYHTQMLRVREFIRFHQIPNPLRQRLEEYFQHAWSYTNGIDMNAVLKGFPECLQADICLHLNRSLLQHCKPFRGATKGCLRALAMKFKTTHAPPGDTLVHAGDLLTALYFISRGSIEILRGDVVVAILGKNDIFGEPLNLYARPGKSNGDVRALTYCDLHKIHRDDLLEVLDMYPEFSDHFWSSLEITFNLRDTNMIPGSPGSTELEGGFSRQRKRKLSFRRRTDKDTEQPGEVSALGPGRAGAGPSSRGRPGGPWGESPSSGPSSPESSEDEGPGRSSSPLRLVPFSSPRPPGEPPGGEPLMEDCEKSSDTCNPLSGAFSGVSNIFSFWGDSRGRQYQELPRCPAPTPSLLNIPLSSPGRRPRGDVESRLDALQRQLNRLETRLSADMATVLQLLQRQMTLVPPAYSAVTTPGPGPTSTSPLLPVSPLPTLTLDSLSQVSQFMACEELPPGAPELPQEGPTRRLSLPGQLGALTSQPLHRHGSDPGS
T1 sequence (Q96P20 whole entry): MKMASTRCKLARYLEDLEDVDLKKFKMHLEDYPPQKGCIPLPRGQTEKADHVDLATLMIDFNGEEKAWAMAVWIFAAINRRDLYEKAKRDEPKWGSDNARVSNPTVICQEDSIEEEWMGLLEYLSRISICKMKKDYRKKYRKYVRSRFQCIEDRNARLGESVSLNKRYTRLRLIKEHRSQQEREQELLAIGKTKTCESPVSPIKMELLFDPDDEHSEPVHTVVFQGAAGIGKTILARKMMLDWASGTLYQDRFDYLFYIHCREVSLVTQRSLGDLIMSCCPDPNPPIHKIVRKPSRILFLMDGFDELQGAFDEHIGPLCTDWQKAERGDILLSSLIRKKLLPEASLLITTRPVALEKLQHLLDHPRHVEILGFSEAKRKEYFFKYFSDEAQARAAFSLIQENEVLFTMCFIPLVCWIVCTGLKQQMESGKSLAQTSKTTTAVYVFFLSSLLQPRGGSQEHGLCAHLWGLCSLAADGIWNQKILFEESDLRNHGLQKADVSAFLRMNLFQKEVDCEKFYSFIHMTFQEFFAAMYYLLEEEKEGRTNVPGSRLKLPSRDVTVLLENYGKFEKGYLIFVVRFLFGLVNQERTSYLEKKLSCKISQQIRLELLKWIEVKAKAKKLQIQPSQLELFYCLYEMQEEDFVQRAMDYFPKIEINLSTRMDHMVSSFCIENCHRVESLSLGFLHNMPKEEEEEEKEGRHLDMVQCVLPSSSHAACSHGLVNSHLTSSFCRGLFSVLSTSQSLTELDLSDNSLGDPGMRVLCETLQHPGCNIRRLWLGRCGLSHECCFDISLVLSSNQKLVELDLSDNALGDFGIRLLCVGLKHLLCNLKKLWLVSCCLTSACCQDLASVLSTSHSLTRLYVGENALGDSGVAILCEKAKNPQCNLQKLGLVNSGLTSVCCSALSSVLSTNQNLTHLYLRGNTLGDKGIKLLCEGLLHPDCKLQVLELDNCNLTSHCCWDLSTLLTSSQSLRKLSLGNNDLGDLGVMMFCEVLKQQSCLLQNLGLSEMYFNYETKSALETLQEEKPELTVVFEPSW

| Compound | EC50 [1] | solubility [3, 8] | IC50 [4] | solubility [5] | IC50 [6] | solubility [3] | inhibition at 3 mg/kg [2] | inhibition at 1 mg/kg [2] | IC50 [7] |
| --- | --- | --- | --- | --- | --- | --- | --- | --- | --- |
| CC(C)(O)CNc1nnc(-c2c(O)cc(C(F)(F)F)cc2F)c2ccncc12 [Example 74, 3-fluoro-2-[4-[(2-hydroxy-2-methyl-propyl)amino]pyrido[3,4-d]pyridazin-1-yl]-5-(trifluoromethyl)phenol] | 204 nM | 12.1 µg/mL (≈ 30.5 µM) | 18 nM | 17 µM (≈ 6.74 µg/mL) | – | – | 68% | – | – |
| OC[C@@H](O)CNc1nnc(-c2c(O)cc(C(F)(F)F)cc2F)c2ccccc12 [Example 7, (2S)-3-[[4-[2-fluoro-6-hydroxy-4-(trifluoromethyl)phenyl]phthalazin-1-yl]amino]propane-1,2-diol] | 180 nM | 70.3 µg/mL (≈ 177 µM) | 22 nM | 582 µM (≈ 231 µg/mL) | 47 nM | – | 95% | 46% | > 40000 nM |
| OC[C@@H](O)CNc1nnc(-c2c(O)cc(Cl)cc2F)c2ccccc12 [Example 9, (2S)-3-[[4-(4-chloro-2-fluoro-6-hydroxy-phenyl)phthalazin-1-yl]amino]propane-1,2-diol] | 164 nM | 67.3 µg/mL (≈ 185 µM) | 11 nM | – | – | – | 77% | – | – |
| C[C@@]1(O)CC[C@@H](Nc2nnc(-c3ccc(C(F)(F)F)cc3O)c3ccncc23)C1 [Example 38, 2-[4-[[(1R,3R)-3-hydroxy-3-methyl-cyclopentyl]amino]pyrido[3,4-d]pyridazin-1-yl]-5-(trifluoromethyl)phenol] | 27 nM | > 80.9 µg/mL | 9 nM | 810 µM (≈ 328 µg/mL) | 16 nM | – | 83% | 29% | > 40000 nM |
| Oc1cc(C(F)(F)F)ccc1-c1nnc(N[C@H]2CCCC[C@H]2O)c2ccccc12 [Example 25, 2-[4-[[(1S,2R)-2-hydroxycyclohexyl]amino]phthalazin-1-yl]-5-(trifluoromethyl)phenol] | 80 nM | 1.8 µg/mL (≈ 4.46 µM) | 8 nM | 3 µM (≈ 1.21 µg/mL) | 36 nM | – | – | – | 7400 nM |
| CC(C)(O)CNc1nnc(-c2ccc(C(F)(F)F)cc2O)c2ccncc12 [Example 70, 2-[4-[(2-hydroxy-2-methyl-propyl)amino]pyrido[3,4-d]pyridazin-1-yl]-5-(trifluoromethyl)phenol] | 67 nM | 17.7 µg/mL (≈ 46.8 µM) | 10 nM | 5 µM (≈ 1.89 µg/mL) | 26 nM | – | 98% | – | > 40000 nM |
| Oc1cc(C(F)(F)F)ccc1-c1nnc(N[C@@H]2CCC[C@H](O)C2)c2cnccc12 [Example 41, 2-[4-[[(1R,3S)-3-hydroxycyclohexyl]amino]pyrido[3,4-d]pyridazin-1-yl]-5-(trifluoromethyl)phenol] | – | 8.6 µg/mL (≈ 21.3 µM) | – | – | – | – | 99% | 94% | – |
| Oc1cc(C(F)(F)F)ccc1-c1nnc(N[C@@H]2CC[C@@H](O)C2)c2ccccc12 [Example 16, 2-[4-[[(1R,3R)-3-hydroxycyclopentyl]amino]phthalazin-1-yl]-5-(trifluoromethyl)phenol] | 54 nM | 23.9 µg/mL (≈ 61.4 µM) | 20 nM | – | 30 nM | – | – | – | 22000 nM |
| Oc1cc(C(F)(F)F)ccc1-c1nnc(N[C@@H]2CCCC[C@@H]2O)c2ccccc12 [Example 23, 2-[4-[[(1R,2S)-2-hydroxycyclohexyl]amino]phthalazin-1-yl]-5-(trifluoromethyl)phenol] | 156 nM | 4.4 µg/mL (≈ 10.9 µM) | 14 nM | 0.4 µM (≈ 0.161 µg/mL) | 31 nM | – | – | – | 21000 nM |
| Oc1cc(C(F)(F)F)ccc1-c1nnc(N[C@H]2CC[C@@H](O)C2)c2cnccc12 [Example 83, 2-[4-[[(1S,3R)-3-hydroxycyclopentyl]amino]pyrido[3,4-d]pyridazin-1-yl]-5-(trifluoromethyl)phenol] | 129 nM | 4.7 µg/mL (≈ 12 µM) | 20 nM | 47 µM (≈ 18.3 µg/mL) | 38 nM | – | – | – | > 40000 nM |
| Oc1cc(C(F)(F)F)ccc1-c1nnc(N[C@H]2CCC[C@H]2O)c2ccccc12 [Example 21, 2-[4-[[(1S,2R)-2-hydroxycyclopentyl]amino]phthalazin-1-yl]-5-(trifluoromethyl)phenol] | 105 nM | 14.5 µg/mL (≈ 37.2 µM) | 8 nM | 71 µM (≈ 27.6 µg/mL) | 36 nM | – | – | – | 19000 nM |

More lines, in order of falling IC50 [4], values ahead:

| EC50 [1] | solubility [3, 8] | IC50 [4] | solubility [5] | IC50 [6] | solubility [3] | Compound | inhibition at 3 mg/kg [2] | inhibition at 1 mg/kg [2] | IC50 [7] |
| --- | --- | --- | --- | --- | --- | --- | --- | --- | --- |
| – | 62.5 µg/mL (≈ 148 µM) | 7 nM | – | – | – | Oc1cc(C(F)(F)F)c(F)cc1-c1nnc(N[C@@H]2CCC[C@H](O)C2)c2cnccc12 [Example 53, 4-fluoro-2-[4-[[(1R,3S)-3-hydroxycyclohexyl]amino]pyrido[3,4-d]pyridazin-1-yl]-5-(trifluoromethyl)phenol] | 65% | – | – |
| 59 nM | 10.2 µg/mL (≈ 25.2 µM) | 7 nM | 48 µM (≈ 19.4 µg/mL) | 18 nM | – | C[C@]1(O)CC[C@@H](Nc2nnc(-c3ccc(C(F)(F)F)cc3O)c3ccncc23)C1 [Example 39, 2-[4-[[(1R,3S)-3-hydroxy-3-methyl-cyclopentyl]amino]pyrido[3,4-d]pyridazin-1-yl]-5-(trifluoromethyl)phenol] | 58% | – | – |
| 29 nM | – | 7 nM | 389 µM (≈ 163 µg/mL) | – | 64 µg/mL (≈ 153 µM) | C[C@@]1(O)CCC[C@@H](Nc2nnc(-c3ccc(C(F)(F)F)cc3O)c3ccncc23)C1 [Example 61, 2-[4-[[(1R,3R)-3-hydroxy-3-methyl-cyclohexyl]amino]pyrido[3,4-d]pyridazin-1-yl]-5-(trifluoromethyl)phenol] | 97% | – | 34000 nM |
| 38 nM | 8.8 µg/mL (≈ 20.8 µM) | 6 nM | 529 µM (≈ 223 µg/mL) | – | – | Oc1cc(C(F)(F)F)cc(F)c1-c1nnc(N[C@@H]2CCCC[C@H]2O)c2cnccc12 [Example 55, 3-fluoro-2-[4-[[(1R,2R)-2-hydroxycyclohexyl]amino]pyrido[3,4-d]pyridazin-1-yl]-5-(trifluoromethyl)phenol] | 91% | – | > 40000 nM |
| 60 nM | 25.7 µg/mL (≈ 61.4 µM) | 6 nM | 120 µM (≈ 50.2 µg/mL) | – | – | C[C@]1(O)CCC[C@@H](Nc2nnc(-c3ccc(C(F)(F)F)cc3O)c3ccncc23)C1 [Example 62, 2-[4-[[(1R,3S)-3-hydroxy-3-methyl-cyclohexyl]amino]pyrido[3,4-d]pyridazin-1-yl]-5-(trifluoromethyl)phenol] | 71% | – | > 40000 nM |
| 26 nM | 10.6 µg/mL (≈ 27.2 µM) | 5 nM | 171 µM (≈ 66.6 µg/mL) | 20 nM | – | Oc1cc(C(F)(F)F)ccc1-c1nnc(N[C@@H]2CCC[C@@H]2O)c2ccccc12 [Example 19, 2-[4-[[(1R,2S)-2-hydroxycyclopentyl]amino]phthalazin-1-yl]-5-(trifluoromethyl)phenol] | – | – | 23000 nM |
| 38 nM | 7.9 µg/mL (≈ 19.6 µM) | 5 nM | 148 µM (≈ 59.7 µg/mL) | 9 nM | – | Oc1cc(C(F)(F)F)ccc1-c1nnc(N[C@@H]2CCCC[C@H]2O)c2ccccc12 [Example 24, 2-[4-[[(1R,2R)-2-hydroxycyclohexyl]amino]phthalazin-1-yl]-5-(trifluoromethyl)phenol] | – | – | 17000 nM |
| 18 nM | 56.3 µg/mL (≈ 143 µM) | 5 nM | 135 µM (≈ 53.1 µg/mL) | – | – | Cc1ccc2c(-c3ccc(C(F)(F)F)cc3O)nnc(NC[C@H](O)CO)c2c1 [Example 14, (2S)-3-[[4-[2-hydroxy-4-(trifluoromethyl)phenyl]-7-methyl-phthalazin-1-yl]amino]propane-1,2-diol] | 75% | – | – |
| 17 nM | 36.9 µg/mL (≈ 94.9 µM) | 5 nM | 596 µM (≈ 232 µg/mL) | – | – | Oc1cc(Cl)cc(F)c1-c1nnc(N[C@@H]2CCCC[C@H]2O)c2cnccc12 [Example 57, 5-chloro-3-fluoro-2-[4-[[(1R,2R)-2-hydroxycyclohexyl]amino]pyrido[3,4-d]pyridazin-1-yl]phenol] | 87% | 42% | > 40000 nM |
| 29 nM | 80.4 µg/mL (≈ 191 µM) | 4 nM | 326 µM (≈ 137 µg/mL) | 14 nM | – | Oc1cc(OC(F)(F)F)ccc1-c1nnc(N[C@@H]2CCC[C@H](O)C2)c2cnccc12 [Example 48, 2-[4-[[(1R,3S)-3-hydroxycyclohexyl]amino]pyrido[3,4-d]pyridazin-1-yl]-5-(trifluoromethoxy)phenol] | – | – | > 40000 nM |
| – | 45.7 µg/mL (≈ 108 µM) | 4 nM | – | – | – | Oc1cc(C(F)(F)F)c(F)cc1-c1nnc(N[C@@H]2CCCC[C@H]2O)c2cnccc12 [Example 54, 4-fluoro-2-[4-[[(1R,2R)-2-hydroxycyclohexyl]amino]pyrido[3,4-d]pyridazin-1-yl]-5-(trifluoromethyl)phenol] | 55% | – | – |
| 37 nM | > 77.8 µg/mL | 3 nM | 941 µM (≈ 366 µg/mL) | – | – | Oc1cc(Cl)cc(F)c1-c1nnc(N[C@@H]2CCC[C@H](O)C2)c2cnccc12 [Example 46, 5-chloro-3-fluoro-2-[4-[[(1R,3S)-3-hydroxycyclohexyl]amino]pyrido[3,4-d]pyridazin-1-yl]phenol] | 65% | 23% | > 40000 nM |
